We go through two compounds from patent US10239889B1, “Pentacyclic compound” (Eisai R&D Management Co., Ltd., priority 2017, dated 2019).

Assay [1] has as its system acetylcholine (ACh) in CSF. Description: Measurement of acetylcholine (ACh) in rat cerebrospinal fluid (CSF). It is filed as in vivo. To be noted: Fischer344 rat, oral 10 mg/kg once a day for three days, CSF 24 hours after administration, LC-MS. As to the method: Measurement of Acetylcholine (ACh) in Rat Cerebrospinal Fluid (CSF)
Thus, the changes in acetylcholine in CSF were measured in order to determine the changes in intracerebral acetylcholine by the test compounds.
(§1) (2) Compound Administration
In this study, Fischer344 male rats (Charles River Laboratories Japan, Inc.) with a body weight of about 150 to 250 g were used. The test compounds were orally administered to the rats once a day at 10 mg/kg for three days. The vehicle used was 0.01 mol/L hydrochloric acid.
At 24 hours after the administration of the vehicle and the test compounds, the CSF was collected from cistema magna in a tube containing AchE inhibitors under pentobarbital anesthesia. The collected CSF was centrifuged at 3500×g at 4° C. for 10 minutes and the supernatant was collected. The collected supernatant was frozen with liquid nitrogen, and then stored at −80° C.
(4) Measurement of Ach by LC-MS
To 10 μL of the CSF was added 50 μL of acetylcholine-d9 chloride (ACh-d9) at a final concentration of 0.34 nmol/L as an internal standard. […] The supernatant was collected and subjected to LC/MS […], and Ach was detected as precursor ion at m/z 146.050 and as product ion at m/z 87.071 and ACh-d9 as an internal standard was detected as precursor ion at m/z 155.088 and as product ion at m/z 87.000. […]

Assay [2] concerns cholinergic neurons, fimbria-fornix lesioned rat model. Description: Neuroprotective and restorative effect on cholinergic neurons using fimbria-fornix lesioned rat model (ChAT positive cells, hippocampal VAChT). Type of assay: in vivo. Particulars: % of sham-operated group, mean±SEM; for OD in hippocampal VAChT (%) in test compound administration group: hippocampus; for Number of ChAT positive cells (%) in test compound administration group: medial septal area. As to the method:
Neuroprotective and Restorative Effect on Cholinergic Neurons Usi Ng Fimbria-Fomix Lesioned Rat Model
(1) Preparation of Fimbria-Fomix Lesioned Rat Model
In this study, Sprague-Dawley male rats (Charles River Laboratories Japan, Inc.) with a body weight of about 250 to 350 g were used. The rat was anesthetized under the combination of three drugs: midazolam (2 mg/kg s.c.), medetomidine hydrochloride (0.15 mg/kg s.c.) and butorphanol tartrate (2.5 mg/kg s.c.) and fixed with a brain stereotaxis apparatus (Narishige Co., Ltd.). The cranial was exposed and a hole with 5 mm width was drilled in the skull from the median line 2 mm posterior to Bregma. A razor with 4 mm width was pierced into the Bregma in 5.5 mm depth to cut fimbria-fornmix. After hemostasis, the scalp was sutured. After the operation, the rat was brought back to the cage and recovered from the anesthesia. In the sham-operated group, a hole with 5 mm width was drilled in the skull from the median line 2 mm posterior to Bregma, but no razor was pierced.
as §1
The test compounds were orally administered to the rats once a day from five days to nine days after the operation (Example 1: 10 mg/kg) or from seven days to fourteen days after the operation (Example 3: 3 mg/kg). The vehicle used was 0.01 mol/L hydrochloric acid. In the sham-operated group, the vehicle was orally administered once a day similarly to the test compound administration group.
The rats were anesthetized under pentobarbital and transcardially perfused with ice-cold PBS. After the perfusion, the forebrain including the medial septal area was collected and immersed and shaken overnight with 4% paraformaldehyde. The immersion solution was replaced with 7.5% sucrose solution. It was immersed and shaken overnight in 7.5% sucrose solution, and the immersion solution was replaced with 15% sucrose solution and it was immersed and shaken overnight. The immersion solution was replaced with 30% sucrose solution and it was immersed and shaken overnight. […]
The prepared brain coronal frozen sections were stained with DAB (DAB PEROXIDASE SUBSTRATE KIT (Vector, SK-4100)) using a ChAT antibody (Santa Cruz, S.C.-20672) or a VAChT antibody (Merck Millipore, ABN100) as a primary antibody. The section image including the medial septal area or hippocampus as shown in “The mouse Brain in stereotaxic coordinates” (COMPACT THIRD EDITION, Keith B.J. Franklin & George Paxinos) was taken by an all-in-one fluorescence microscope (KEYENCE, BZ-X710) and ChAT positive cells of the medial septal area or optical density (OD) in hippocampal VAChT were measured by BZ analysis software (KEYENCE). […] Data are expressed as the mean±SEM. The differences between the vehicle-treated group and compound-treated (significant: #) was analyzed by unpaired t-test. […]

The mark [3] stands for this setting: oral 3 mg/kg once a day from seven to fourteen days after operation.
Where [4] appears, read: oral 10 mg/kg once a day from five to nine days after operation.

In the case of `CN1CCc2c(sc3nc4n(c(=O)c23)-c2sccc2C(=O)N(C)C4)C1` [Example 3, 5,10-dimethyl-5,6,9,10,11,12-hexahydropyrido[4″,3″:4′,5′]thieno[2′,3′:4,5]pyrimido[1,2-a]thieno[3,2-f][1,4]diazepine-4,13-dione], the “Amount (%) increased with respect to from the amount of ACh in CSF the vehicle administration group” value in assay [1] was 156.8%. In assay [2] (setting [3]), the “OD in hippocampal VAChT (%) in test compound administration group” value is reported as 66.1 ± 14.2^# % and the “Number of ChAT positive cells (%) in test compound administration group” value is on record as 74.1 ± 9.3^# %.

Take `CN1CCc2c(sc3nc4n(c(=O)c23)-c2ccc(F)cc2C(=O)N(C)C4)C1` [Example 1]: the “Amount (%) increased with respect to from the amount of ACh in CSF the vehicle administration group” value in assay [1] stood at 160.0%. Also, in assay [2] (setting [4]), the “OD in hippocampal VAChT (%) in test compound administration group” value is reported as 77.1 ± 14.6^# % and the “Number of ChAT positive cells (%) in test compound administration group” value turned out to be 79.1 ± 15.7%.
